Assay results from ChEMBL document CHEMBL3526058, “Investigating the enteroenteric recirculation of apixaban, a factor Xa inhibitor: administration of activated charcoal to bile duct-cannulated rats and dogs receiving an intravenous dose and use of drug transporter knockout rats” (Drug Metab Dispos, 2013).

Columns and labels:
Rattus norvegicus [1] = test: Metabolism and biliary clearance in P-gp-knockout Sprague-Dawley rat at 2 mg/kg, iv relative to total clearance; format: ADME, organism-based, Bile; parameters: dose 2 mg/kg, route intravenous; conditions: in vivo
[2] = AUC (0 to infinity) in wild-type 30 mins activated charcoal pre-treated bile duct-cannulated Sprague-Dawley rat at 2 mg/kg, iv followed by activated charcoal administration 5 to 180 mins post compound dosing; format: ADME, organism-based; parameters: time infinity, dose 2 mg/kg, route intravenous; conditions: in vivo
Rattus norvegicus [3] = test: Intestinal clearance in wild-type bile duct-cannulated Sprague-Dawley rat at 2 mg/kg, iv administered 0.125 hr post GF-120918 treatment relative to total clearance; format: ADME, organism-based; parameters: dose 2 mg/kg, route intravenous; conditions: in vivo
Rattus norvegicus [4] = test: Metabolism and biliary clearance in wild-type bile duct-cannulated Sprague-Dawley rat at 2 mg/kg, iv relative to total clearance; format: ADME, organism-based; parameters: dose 2 mg/kg, route intravenous; conditions: in vivo
[5] = Volume of distribution at steady state in bile duct-cannulated beagle dog at 1 mg/kg, iv administered as 5 mins infusion followed by activated charcoal administration 10 to 420 mins post compound dosing; format: ADME, organism-based, Canis lupus familiaris; parameters: dose 1 mg/kg, route intravenous; conditions: in vivo, read-out: Vdss
[6] = Mean residence time in wild-type bile duct-cannulated Sprague-Dawley rat at 2 mg/kg, iv; format: ADME, organism-based; parameters: dose 2 mg/kg, route intravenous; conditions: in vivo
Rattus norvegicus [7] = test: Renal clearance in BCRP-knockout Sprague-Dawley rat at 2 mg/kg, iv relative to total clearance; format: ADME, organism-based, Kidney; parameters: dose 2 mg/kg, route intravenous; conditions: in vivo
[8] = Drug recovery in feces of Sprague-Dawley rat at 30 mg/kg, po measured up to 168 hrs; format: ADME, organism-based; parameters: dose 30 mg/kg, route oral; conditions: read-out: Drug recovery
[9] = Mean residence time in BCRP-knockout Sprague-Dawley rat at 2 mg/kg, iv; format: ADME, organism-based; parameters: dose 2 mg/kg, route intravenous; conditions: in vivo
[10] = Renal clearance in wild-type bile duct-cannulated Sprague-Dawley rat at 2 mg/kg, iv; format: ADME, organism-based, Kidney; parameters: dose 2 mg/kg, route intravenous; conditions: in vivo
Rattus norvegicus [11] = test: Metabolism and biliary clearance in wild-type bile duct-cannulated Sprague-Dawley rat at 2 mg/kg, iv; format: ADME, organism-based; parameters: dose 2 mg/kg, route intravenous; conditions: in vivo
Canis familiaris [12] = test: Intestinal clearance in bile duct-cannulated beagle dog at 1 mg/kg, iv administered as 5 mins infusion followed by activated charcoal administration 10 to 420 mins post compound dosing relative to total clearance; format: ADME, organism-based, Canis lupus familiaris; parameters: dose 1 mg/kg, route intravenous; conditions: in vivo
[13] = Drug recovery in feces of beagle dog at 1 mg/kg, iv administered as 5 mins infusion measured up to 72 hrs; format: ADME, organism-based, Canis lupus familiaris; parameters: dose 1 mg/kg, route intravenous; conditions: read-out: Drug recovery
Canis familiaris [14] = test: Intestinal clearance in bile duct-cannulated beagle dog at 1 mg/kg, iv administered as 5 mins infusion followed by activated charcoal administration 10 to 420 mins post compound dosing; format: ADME, organism-based, Canis lupus familiaris; parameters: dose 1 mg/kg, route intravenous; conditions: in vivo
[15] = Cmax in wild-type bile duct-cannulated Sprague-Dawley rat at 2 mg/kg, iv; format: ADME, organism-based; parameters: dose 2 mg/kg, route intravenous; conditions: in vivo
[16] = Drug recovery in feces of bile duct-cannulated P-gp-knockout Sprague-Dawley rat at 2 mg/kg, iv measured up to 24 hrs; format: ADME, organism-based; parameters: dose 2 mg/kg, route intravenous; conditions: read-out: Drug recovery
[17] = Mean residence time in wild-type 30 mins activated charcoal pre-treated bile duct-cannulated Sprague-Dawley rat at 2 mg/kg, iv followed by activated charcoal administration 5 to 180 mins post compound dosing; format: ADME, organism-based; parameters: dose 2 mg/kg, route intravenous; conditions: in vivo
[18] = Drug recovery in feces of bile duct-cannulated BCRP-knockout Sprague-Dawley rat at 2 mg/kg, iv measured up to 24 hrs; format: ADME, organism-based; parameters: dose 2 mg/kg, route intravenous; conditions: read-out: Drug recovery
[19] = Drug recovery in feces of bile duct-cannulated beagle dog at 1 mg/kg, iv administered as 5 mins infusion followed by activated charcoal administration 10 to 420 mins post compound measured up to 72 hrs; format: ADME, organism-based, Canis lupus familiaris; parameters: dose 1 mg/kg, route intravenous; conditions: in vivo
Rattus norvegicus [20] = test: Renal clearance in wild-type 30 mins activated charcoal pre-treated bile duct-cannulated Sprague-Dawley rat at 2 mg/kg, iv followed by activated charcoal administration 5 to 180 mins post compound dosing relative to total clearance; format: ADME, organism-based, Kidney; parameters: dose 2 mg/kg, route intravenous; conditions: in vivo
Canis familiaris [21] = test: AUC (0 to infinity) in bile duct-cannulated beagle dog at 1 mg/kg, iv administered as 5 mins infusion followed by activated charcoal administration 10 to 420 mins post compound dosing; format: ADME, organism-based, Canis lupus familiaris; parameters: time infinity, dose 1 mg/kg, route intravenous; conditions: in vivo
[22] = Mean residence time in bile duct-cannulated beagle dog at 1 mg/kg, iv administered as 5 mins infusion; format: ADME, organism-based, Canis lupus familiaris; parameters: dose 1 mg/kg, route intravenous; conditions: in vivo
Rattus norvegicus [23] = test: Intestinal clearance in BCRP-knockout Sprague-Dawley rat at 2 mg/kg, iv; format: ADME, organism-based; parameters: dose 2 mg/kg, route intravenous; conditions: in vivo
[24] = Renal clearance in bile duct-cannulated beagle dog at 1 mg/kg, iv administered as 5 mins infusion followed by activated charcoal administration 10 to 420 mins post compound dosing; format: ADME, organism-based, Canis lupus familiaris, Kidney; parameters: dose 1 mg/kg, route intravenous; conditions: in vivo
Canis familiaris [25] = test: AUC (0 to infinity) in bile duct-cannulated beagle dog at 1 mg/kg, iv administered as 5 mins infusion; format: ADME, organism-based, Canis lupus familiaris; parameters: time infinity, dose 1 mg/kg, route intravenous; conditions: in vivo
[26] = Half life in wild-type bile duct-cannulated Sprague-Dawley rat at 2 mg/kg, iv administered 0.125 hr post GF-120918 treatment; format: ADME, organism-based; parameters: dose 2 mg/kg, route intravenous; conditions: in vivo, with GF-120918
Rattus norvegicus [27] = test: Intestinal clearance in wild-type bile duct-cannulated Sprague-Dawley rat at 2 mg/kg, iv relative to total clearance; format: ADME, organism-based; parameters: dose 2 mg/kg, route intravenous; conditions: in vivo
[28] = Renal clearance in BCRP-knockout Sprague-Dawley rat at 2 mg/kg, iv; format: ADME, organism-based, Kidney; parameters: dose 2 mg/kg, route intravenous; conditions: in vivo
Rattus norvegicus [29] = test: Intestinal clearance in P-gp-knockout Sprague-Dawley rat at 2 mg/kg, iv relative to total clearance; format: ADME, organism-based; parameters: dose 2 mg/kg, route intravenous; conditions: in vivo
[30] = Drug recovery in urine of Sprague-Dawley rat at 2 mg/kg, iv measured up to 168 hrs; format: ADME, organism-based; parameters: dose 2 mg/kg, route intravenous; conditions: read-out: Drug recovery
[31] = Drug recovery in bile of bile duct-cannulated beagle dog at 1 mg/kg, iv administered as 5 mins infusion measured up to 72 hrs; format: ADME, organism-based, Canis lupus familiaris; parameters: dose 1 mg/kg, route intravenous; conditions: read-out: Drug recovery
[32] = Renal clearance in wild-type 30 mins activated charcoal pre-treated bile duct-cannulated Sprague-Dawley rat at 2 mg/kg, iv followed by activated charcoal administration 5 to 180 mins post compound dosing; format: ADME, organism-based, Kidney; parameters: dose 2 mg/kg, route intravenous; conditions: in vivo
[33] = Renal clearance in wild-type bile duct-cannulated Sprague-Dawley rat at 2 mg/kg, iv administered 0.125 hr post GF-120918 treatment; format: ADME, organism-based, Kidney; parameters: dose 2 mg/kg, route intravenous; conditions: in vivo, with GF-120918
[34] = Half life in P-gp-knockout Sprague-Dawley rat at 2 mg/kg, iv; format: ADME, organism-based; parameters: dose 2 mg/kg, route intravenous; conditions: in vivo
[35] = AUC (0 to infinity) in BCRP-knockout Sprague-Dawley rat at 2 mg/kg, iv; format: ADME, organism-based; parameters: time infinity, dose 2 mg/kg, route intravenous; conditions: plasma
[36] = Renal clearance in bile duct-cannulated beagle dog at 1 mg/kg, iv administered as 5 mins infusion; format: ADME, organism-based, Canis lupus familiaris, Kidney; parameters: dose 1 mg/kg, route intravenous; conditions: in vivo
[37] = Drug recovery in bile of bile duct-cannulated Sprague-Dawley rat at 2 mg/kg, iv administered 1 hr post GF-120918 treatment measured up to 48 hrs; format: ADME, organism-based; parameters: dose 2 mg/kg, route intravenous; conditions: with GF-120918, given 1 hr before the compound, read-out: Drug recovery
[38] = Cmax in wild-type 30 mins activated charcoal pre-treated bile duct-cannulated Sprague-Dawley rat at 2 mg/kg, iv followed by activated charcoal administration 5 to 180 mins post compound dosing; format: ADME, organism-based; parameters: dose 2 mg/kg, route intravenous; conditions: in vivo
[39] = Volume of distribution at steady state in BCRP-knockout Sprague-Dawley rat at 2 mg/kg, iv; format: ADME, organism-based; parameters: dose 2 mg/kg, route intravenous; conditions: in vivo, read-out: Vdss
Rattus norvegicus [40] = test: Metabolism and biliary clearance in wild-type 30 mins activated charcoal pre-treated bile duct-cannulated Sprague-Dawley rat at 2 mg/kg, iv followed by activated charcoal administration 5 to 180 mins post compound dosing; format: ADME, organism-based; parameters: dose 2 mg/kg, route intravenous; conditions: in vivo
[41] = Drug recovery in urine of bile duct-cannulated beagle dog at 1 mg/kg, iv administered as 5 mins infusion measured up to 72 hrs; format: ADME, organism-based, Canis lupus familiaris; parameters: dose 1 mg/kg, route intravenous; conditions: read-out: Drug recovery
[42] = Drug recovery in feces of bile duct-cannulated beagle dog at 1 mg/kg, iv administered as 5 mins infusion measured up to 72 hrs; format: ADME, organism-based, Canis lupus familiaris; parameters: dose 1 mg/kg, route intravenous; conditions: read-out: Drug recovery
[43] = Drug recovery in feces of beagle dog at 5 mg/kg, po measured up to 72 hrs; format: ADME, organism-based, Canis lupus familiaris; parameters: dose 5 mg/kg, route oral; conditions: read-out: Drug recovery
Rattus norvegicus [44] = test: Metabolism and biliary clearance in P-gp-knockout Sprague-Dawley rat at 2 mg/kg, iv; format: ADME, organism-based, Bile; parameters: dose 2 mg/kg, route intravenous; conditions: in vivo

- CL (Rattus norvegicus [1]): 33%
- AUC(0-inf) [2]: 1020 ng·h/mL
- CL (Rattus norvegicus [3]): 14%
- CL (Rattus norvegicus [4]): 28%
- Vd [5]: 0.2 L/kg
- MRT [6]: 0.6 h
- CL (Rattus norvegicus [7]): 33%
- dose excreted at 168 h [8]: 74%
- MRT [9]: 1.4 h
- CL renal [10]: 11.8 mL/min/kg
- CL (Rattus norvegicus [11]): 6.5 mL/min/kg
- CL (Canis familiaris [12]): 62%
- dose excreted [13]: 50.8%
- CL (Canis familiaris [14]): 0.52 mL/min/kg
- Cmax [15]: 2260 ng/mL
- dose excreted at 24 h [16]: 24.9%
- MRT [17]: 0.6 h
- dose excreted at 24 h [18]: 34.1%
- Drug recovery [19]: 62.7%
- CL (Rattus norvegicus [20]): 39%
- AUC (Canis familiaris [21]): 5600 ng·h/mL
- MRT [22]: 2.6 h
- CL (Rattus norvegicus [23]): 5.67 mL/min/kg
- CL renal [24]: 0.122 mL/min/kg
- AUC (Canis familiaris [25]): 9300 ng·h/mL
- half-life [26]: 2.8 h
- CL (Rattus norvegicus [27]): 21%
- CL renal [28]: 5 mL/min/kg
- CL (Rattus norvegicus [29]): 24%
- dose excreted at 168 h [30]: 51.3%
- dose excreted [31]: 12.4%
- CL renal [32]: 13 mL/min/kg
- CL renal at 0.125 h [33]: 5.83 mL/min/kg
- half-life [34]: 1.1 h
- AUC(0-inf) [35]: 2340 ng·h/mL
- CL renal at 5 min [36]: 0.0907 mL/min/kg
- dose excreted [37]: 14.7%
- Cmax [38]: 1640 ng/mL
- Vd [39]: 1.8 L/kg
- CL (Rattus norvegicus [40]): 11.2 mL/min/kg
- dose excreted [41]: 13.5%
- dose excreted [42]: 42.7%
- dose excreted at 72 h [43]: 73.7%
- CL (Rattus norvegicus [44]): 4.83 mL/min/kg
SMILES: COc1ccc(-n2nc(C(N)=O)c3c2[14C](=O)N(c2ccc(N4CCCCC4=O)cc2)CC3)cc1
